Test results published in patent US20240376052A1, “N-SUBSTITUTED INDOLE DERIVATIVES AS SEROTONERGIC AGENTS USEFUL FOR THE TREATMENT OF DISORDERS RELATED THERETO” (Mindset Pharma Inc., priority 2021, published 2024).
Read-outs that look alike come from different tables or passages of the source.

Assays:
[1] = Liver microsomes stability, dog; conditions: for Predicted hepatic CL: Dog liver microsomes; for Remaining Percentage (%): Dog; for CLint scaled at 2 μM / half-life at 2 μM / microsomal CLint at 2 μM: dog, microsomes
[2] = Liver microsomes stability, mouse; conditions: for Predicted hepatic CL: Mouse liver microsomes; for Remaining Percentage (%): Mouse; for CLint scaled at 2 μM / half-life at 2 μM / microsomal CLint at 2 μM: male, mouse, microsomes
Description: (§1) The objective of this study was to estimate in vitro metabolic stability of representative compounds of the application in pooled human and male mouse liver microsomes. The concentrations of parent compounds in reaction systems were evaluated by LC-MS/MS for estimating the stability in pooled human and male mouse liver microsomes. The in vitro intrinsic clearances of test compounds were determined as well.
(§2) A master solution in the “Incubation Plate” containing phosphate buffer, ultra-pure H2O, MgCl2 solution and liver microsomes was made according to Table 3. The mixture was pre-warmed at 37° C. water bath for 5 minutes.
(§3) 40 μL of 10 mM NADPH solution was added to each well. The final concentration of NADPH was 1 mM. The negative control samples were prepared by replacing NADPH with 40 μL of ultra-pure H2O. Samples were prepared in duplicate. Negative controls were prepared in singlet.
(§4) The reaction was started with the addition of 4 μL of 200 μM test compounds or control compounds to each master solution to get the final concentration of 2 μM. This study was performed in duplicate.
(§5) Aliquots of 50 μL were taken from the reaction solution at 0, 15, 30, 45 and 60 minutes. The reaction solutions were stopped by the addition of 4 volumes of cold methanol with IS (100 nM alprazolam, 200 nM imipramine, 200 nM labetalol and 2 μM ketoprofen). Samples were centrifuged at 3,220 g for 40 minutes. Aliquot of 90 μL of the supernatant was mixed with 90 μL of ultra-pure H2O and then was used for LC-MS/MS analysis.
(§6) LC/MS analysis was performed for all samples from this study using a Shimadzu liquid chromatograph separation system equipped with degasser DGU-20A5R; solvent delivery unit LC-30AD; system controller SIL-30AC; column oven CTO-30A; CTC Analytics HTC PAL System. Mass spectrometric analysis was performed using an Triple Quad™ 5500 instrument.
(§7) All calculations were carried out using Microsoft Excel. Peak area ratios of test compound to internal standard (listed in the below table) were determined from extracted ion chromatograms.
(§8) All calculations were carried out using Microsoft Excel. Peak areas were determined from extracted ion chromatograms. The slope value, k, was determined by linear regression of the natural logarithm of the remaining percentage of the parent drug vs. incubation time curve.
(§9) The in vitro half-life (in vitro t1/2) was determined from the slope value:
(§10) Conversion of the in vitro t1/2(min) into the in vitro intrinsic clearance (in vitro CLint, in μL/min/mg proteins) was done using the following equation (mean of duplicate determinations): […]

[3] = Liver microsomes stability, rat; conditions: for Predicted hepatic CL: Rat liver microsomes; for Remaining Percentage (%): Rat; for CLint scaled at 2 μM / half-life at 2 μM / microsomal CLint at 2 μM: rat, microsomes
Description: as §1, §2, §3, §4, §5, §6, §7, §8, §9, §10

[4] = Liver microsomes stability, human; conditions: for Predicted hepatic CL: Human liver microsomes; for Remaining Percentage (%): Human; for CLint scaled at 2 μM / half-life at 2 μM / microsomal CLint at 2 μM: human, microsomes
Description: as §1, §2, §3, §4, §5, §6, §7, §8, §9, §10

human 5-HT2A receptor = human 5-HT2A receptor (Homo sapiens (Human), UniProt P28223); experiment: Human 5-HT2A radioligand binding assay ([3H]-ketanserin)
C57BL/6J mice = experiment: Mouse head twitch; assay type: in vivo; conditions: mice pretreated with M100907 prior to I-1
Description: The effect of different doses of representative compounds of Formula I were evaluated on head-twitch response (HTR) and other behavioural responses indicative of serotonin syndrome as behavior-based models of psychedelic activity.
Male, C57BL/6J mice (body weight range 20-30 g) were dosed with the appropriate dose of test article, and following a 1-minute pre-treatment time, placed in individual observation chambers. Animals were visually assessed for the incidence head twitches continuously over a 1 hr period. Head twitches were defined as a rapid jerk of the head which was not elicited by an external tactile stimulus (Come and Pickering, Psychopharmacologia, 1967, 11(1): 65-78). Each head twitch was individually counted by a trained observer, and the data expressed as the mean+SEM of 6-10 mice per group. Mice were used in a single experiment only.

CCCCC/C=C\C/C=C\CCCCCCCC(=O)n1cc(C[C@H]2CCCN2C)c2cc(OC)ccc21 [Compound I-6, (9Z,12Z)-1-(5-Methoxy-3-(((R)-1-methylpyrrolidin-2-yl)methyl)-1H-indol-1-yl)octadeca-9,12-dien-1-one]
Predicted hepatic CL [1]: 22.75 mL/min/kg
Remaining Percentage (%) ([1]; With NADPH, 0 min): 100.00%
Remaining Percentage (%) ([1]; With NADPH, 30 min): 49.51%
Remaining Percentage (%) ([1]; With NADPH, 60 min): 35.40%
Remaining Percentage (%) ([1]; Without NADPH, 0 min): 100.00%
Remaining Percentage (%) ([1]; Without NADPH, 30 min): 84.09%
Remaining Percentage (%) ([1]; Without NADPH, 60 min): 91.76%
CLint scaled at 2 μM [1]: 86.3 mL/min/kg
half-life at 2 μM [1]: 0.667 h
microsomal CLint at 2 μM [1]: 34.6 µL/min/mg
Predicted hepatic CL [2]: 33.37 mL/min/kg
Remaining Percentage (%) ([2]; With NADPH, 0 min): 100.00%
Remaining Percentage (%) ([2]; With NADPH, 30 min): 76.15%
Remaining Percentage (%) ([2]; With NADPH, 60 min): 69.51%
Remaining Percentage (%) ([2]; Without NADPH, 0 min): 100.00%
Remaining Percentage (%) ([2]; Without NADPH, 30 min): 81.25%
Remaining Percentage (%) ([2]; Without NADPH, 60 min): 91.07%
CLint scaled at 2 μM [2]: 53 mL/min/kg
half-life at 2 μM [2]: 1.91 h
microsomal CLint at 2 μM [2]: 12.1 µL/min/mg
Predicted hepatic CL [3]: 14.24 mL/min/kg
Remaining Percentage (%) ([3]; With NADPH, 0 min): 100.00%
Remaining Percentage (%) ([3]; With NADPH, 30 min): 83.04%
Remaining Percentage (%) ([3]; With NADPH, 60 min): 72.53%
Remaining Percentage (%) ([3]; Without NADPH, 0 min): 100.00%
Remaining Percentage (%) ([3]; Without NADPH, 30 min): 93.17%
Remaining Percentage (%) ([3]; Without NADPH, 60 min): 92.62%
CLint scaled at 2 μM [3]: 19.2 mL/min/kg
half-life at 2 μM [3]: 2.16 h
microsomal CLint at 2 μM [3]: 10.7 µL/min/mg
Predicted hepatic CL [4]: 4.62 mL/min/kg
Remaining Percentage (%) ([4]; With NADPH, 0 min): 100.00%
Remaining Percentage (%) ([4]; With NADPH, 30 min): 91.33%
Remaining Percentage (%) ([4]; With NADPH, 60 min): 86.76%
Remaining Percentage (%) ([4]; Without NADPH, 0 min): 100.00%
Remaining Percentage (%) ([4]; Without NADPH, 30 min): 89.58%
Remaining Percentage (%) ([4]; Without NADPH, 60 min): 83.22%
CLint scaled at 2 μM [4]: 5.94 mL/min/kg
half-life at 2 μM [4]: 4.88 h
microsomal CLint at 2 μM [4]: 4.74 µL/min/mg
IC50 (human 5-HT2A receptor): < 2000 nM

[2H]c1c([2H])c([2H])c2c(c1[2H])c(CCN(C([2H])([2H])[2H])C([2H])([2H])[2H])c([2H])n2C(=O)CCCCCCC/C=C\C/C=C\CCCCC [Compound I-7, (9Z,12Z)-1-(3-(2-(Bis(methyl-d3)amino)ethyl)-1H-indol-1-yl-2,4,5,6,7-d5)octadeca-9,12-dien-1-one]
IC50 (human 5-HT2A receptor): 2000 to 5000 nM

CCCCC/C=C\C/C=C\CCCCCCCC(=O)n1cc(CCN(C)C)c2ccccc21 [Compound I-8, (9Z,12Z)-1-(3-(2-(Dimethylamino)ethyl)-1H-indol-1-yl)octadeca-9,12-dien-1-one]
Predicted hepatic CL [1]: 18.69 mL/min/kg
Remaining Percentage (%) ([1]; With NADPH, 0 min): 100.00%
Remaining Percentage (%) ([1]; With NADPH, 30 min): 66.41%
Remaining Percentage (%) ([1]; With NADPH, 60 min): 56.62%
Remaining Percentage (%) ([1]; Without NADPH, 0 min): 100.00%
Remaining Percentage (%) ([1]; Without NADPH, 30 min): 84.36%
Remaining Percentage (%) ([1]; Without NADPH, 60 min): 92.44%
CLint scaled at 2 μM [1]: 47.3 mL/min/kg
half-life at 2 μM [1]: 1.22 h
microsomal CLint at 2 μM [1]: 19 µL/min/mg
Predicted hepatic CL [2]: 6.52 mL/min/kg
Remaining Percentage (%) ([2]; With NADPH, 0 min): 100.00%
Remaining Percentage (%) ([2]; With NADPH, 30 min): 105.41%
Remaining Percentage (%) ([2]; With NADPH, 60 min): 95.29%
Remaining Percentage (%) ([2]; Without NADPH, 0 min): 100.00%
Remaining Percentage (%) ([2]; Without NADPH, 30 min): 87.39%
Remaining Percentage (%) ([2]; Without NADPH, 60 min): 85.47%
CLint scaled at 2 μM [2]: 7.03 mL/min/kg
half-life at 2 μM [2]: 14.4 h
microsomal CLint at 2 μM [2]: 1.61 µL/min/mg
Predicted hepatic CL [3]: 12.94 mL/min/kg
Remaining Percentage (%) ([3]; With NADPH, 0 min): 100.00%
Remaining Percentage (%) ([3]; With NADPH, 30 min): 91.29%
Remaining Percentage (%) ([3]; With NADPH, 60 min): 75.35%
Remaining Percentage (%) ([3]; Without NADPH, 0 min): 100.00%
Remaining Percentage (%) ([3]; Without NADPH, 30 min): 107.31%
Remaining Percentage (%) ([3]; Without NADPH, 60 min): 109.93%
CLint scaled at 2 μM [3]: 16.9 mL/min/kg
half-life at 2 μM [3]: 2.45 h
microsomal CLint at 2 μM [3]: 9.44 µL/min/mg
Predicted hepatic CL [4]: 2.16 mL/min/kg
Remaining Percentage (%) ([4]; With NADPH, 0 min): 100.00%
Remaining Percentage (%) ([4]; With NADPH, 30 min): 91.39%
Remaining Percentage (%) ([4]; With NADPH, 60 min): 94.38%
Remaining Percentage (%) ([4]; Without NADPH, 0 min): 100.00%
Remaining Percentage (%) ([4]; Without NADPH, 30 min): 91.04%
Remaining Percentage (%) ([4]; Without NADPH, 60 min): 100.94%
CLint scaled at 2 μM [4]: 2.42 mL/min/kg
half-life at 2 μM [4]: 12 h
microsomal CLint at 2 μM [4]: 1.93 µL/min/mg
IC50 (human 5-HT2A receptor; [3H]-ketanserin competition, read-out: h5-HT2A IC50): < 2000 nM

[2H]C([2H])([2H])N(C([2H])([2H])[2H])C([2H])([2H])C([2H])([2H])c1cn(C(=O)CCCCCCC/C=C\C/C=C\CCCCC)c2cccc(F)c12 [Compound I-9, (9Z,12Z)-1-(3-(2-(Bis(methyl-d3)amino)ethyl-1,1,2,2-d4)-4-fluoro-1H-indol-1-yl)octadeca-9,12-dien-1-one]
IC50 (human 5-HT2A receptor): 2000 to 5000 nM

COc1cccc([C@H](O)C2CCN(CCc3ccc(F)cc3)CC2)c1OC [Compound M100907, reference compound]
effect of antagonist pretreatment on HTR induced by I-1 (C57BL/6J mice): completely blocked
